# Source: the NIST ThermoML archive (doi:10.1021/acs.jced.7b00694)
# ± gives the expanded uncertainty stated by the source.
# Assay: xn = mol fraction of the nth substance listed
# Conditions: Gas, Buoyancy - hydrostatic balance with magnetic suspension - one sinker
compound,measurement,setting,value
[HH] [hydrogen] + N#N,mass density,"240.05 K, 998 kPa, x2 = 0.95",13.46 ± 0.073 kg/m3
same,mass density,"240.05 K, 1997 kPa, x2 = 0.95",27.15 ± 0.074 kg/m3
same,mass density,"240.05 K, 2999 kPa, x2 = 0.95",41.055 ± 0.075 kg/m3
same,mass density,"240.05 K, 3998 kPa, x2 = 0.95",55.055 ± 0.077 kg/m3
same,mass density,"240.05 K, 4998 kPa, x2 = 0.95",69.19 ± 0.078 kg/m3
same,mass density,"240.05 K, 5999 kPa, x2 = 0.95",83.412 ± 0.079 kg/m3
same,mass density,"240.05 K, 7000 kPa, x2 = 0.95",97.671 ± 0.08 kg/m3
same,mass density,"240.05 K, 8000 kPa, x2 = 0.95",111.894 ± 0.081 kg/m3
same,mass density,"240.05 K, 9001 kPa, x2 = 0.95",126.079 ± 0.082 kg/m3
same,mass density,"240.05 K, 10004 kPa, x2 = 0.95",140.187 ± 0.082 kg/m3
same,mass density,"240.05 K, 11004 kPa, x2 = 0.95",154.093 ± 0.083 kg/m3
same,mass density,"240.05 K, 12006 kPa, x2 = 0.95",167.817 ± 0.082 kg/m3
same,mass density,"240.05 K, 13008 kPa, x2 = 0.95",181.315 ± 0.083 kg/m3
same,mass density,"240.05 K, 14010 kPa, x2 = 0.95",194.555 ± 0.083 kg/m3
same,mass density,"240.05 K, 15014 kPa, x2 = 0.95",207.511 ± 0.083 kg/m3
same,mass density,"240.05 K, 16011 kPa, x2 = 0.95",220.048 ± 0.083 kg/m3
same,mass density,"240.05 K, 17007 kPa, x2 = 0.95",232.236 ± 0.083 kg/m3
same,mass density,"240.05 K, 18019 kPa, x2 = 0.95",244.268 ± 0.083 kg/m3
same,mass density,"240.05 K, 19018 kPa, x2 = 0.95",255.783 ± 0.083 kg/m3
same,mass density,"240.05 K, 19977 kPa, x2 = 0.95",266.493 ± 0.084 kg/m3
same,mass density,"240.07 K, 998 kPa, x2 = 0.9",12.789 ± 0.07 kg/m3
same,mass density,"240.07 K, 999 kPa, x2 = 0.5001",7.515 ± 0.045 kg/m3
same,mass density,"240.07 K, 1998 kPa, x2 = 0.9",25.761 ± 0.07 kg/m3
same,mass density,"240.07 K, 2000 kPa, x2 = 0.5001",14.997 ± 0.045 kg/m3
same,mass density,"240.07 K, 3000 kPa, x2 = 0.9",38.902 ± 0.072 kg/m3
same,mass density,"240.07 K, 3998 kPa, x2 = 0.9",52.1 ± 0.073 kg/m3
same,mass density,"240.07 K, 3999 kPa, x2 = 0.5001",29.835 ± 0.046 kg/m3
same,mass density,"240.07 K, 4998 kPa, x2 = 0.5001",37.187 ± 0.046 kg/m3
same,mass density,"240.07 K, 4998 kPa, x2 = 0.9",65.397 ± 0.074 kg/m3
same,mass density,"240.07 K, 5999 kPa, x2 = 0.5001",44.484 ± 0.046 kg/m3
same,mass density,"240.07 K, 5999 kPa, x2 = 0.9",78.743 ± 0.075 kg/m3
same,mass density,"240.07 K, 6999 kPa, x2 = 0.5001",51.715 ± 0.047 kg/m3
same,mass density,"240.07 K, 6999 kPa, x2 = 0.9",92.089 ± 0.076 kg/m3
same,mass density,"240.07 K, 8000 kPa, x2 = 0.9",105.416 ± 0.076 kg/m3
same,mass density,"240.07 K, 9001 kPa, x2 = 0.9",118.665 ± 0.077 kg/m3
same,mass density,"240.07 K, 10003 kPa, x2 = 0.9",131.826 ± 0.077 kg/m3
same,mass density,"240.07 K, 11003 kPa, x2 = 0.9",144.806 ± 0.078 kg/m3
same,mass density,"240.07 K, 12006 kPa, x2 = 0.9",157.633 ± 0.078 kg/m3
same,mass density,"240.07 K, 13007 kPa, x2 = 0.9",170.235 ± 0.079 kg/m3
same,mass density,"240.07 K, 14004 kPa, x2 = 0.9",182.528 ± 0.078 kg/m3
same,mass density,"240.07 K, 15010 kPa, x2 = 0.9",194.68 ± 0.078 kg/m3
same,mass density,"240.07 K, 16012 kPa, x2 = 0.9",206.497 ± 0.079 kg/m3
same,mass density,"240.07 K, 17016 kPa, x2 = 0.9",218.039 ± 0.079 kg/m3
same,mass density,"240.07 K, 18009 kPa, x2 = 0.9",229.14 ± 0.079 kg/m3
same,mass density,"240.07 K, 19021 kPa, x2 = 0.9",240.134 ± 0.079 kg/m3
same,mass density,"240.07 K, 19857 kPa, x2 = 0.9",248.956 ± 0.08 kg/m3
same,mass density,"240.08 K, 2989 kPa, x2 = 0.5001",22.354 ± 0.046 kg/m3
same,mass density,"240.08 K, 7999 kPa, x2 = 0.5001",58.867 ± 0.047 kg/m3
same,mass density,"240.08 K, 8999 kPa, x2 = 0.5001",65.94 ± 0.048 kg/m3
same,mass density,"240.08 K, 10002 kPa, x2 = 0.5001",72.937 ± 0.048 kg/m3
same,mass density,"240.08 K, 11003 kPa, x2 = 0.5001",79.831 ± 0.048 kg/m3
same,mass density,"240.08 K, 17004 kPa, x2 = 0.5001",118.935 ± 0.051 kg/m3
same,mass density,"240.08 K, 18010 kPa, x2 = 0.5001",125.09 ± 0.051 kg/m3
same,mass density,"240.08 K, 19066 kPa, x2 = 0.5001",131.423 ± 0.051 kg/m3
same,mass density,"240.09 K, 12008 kPa, x2 = 0.5001",86.648 ± 0.049 kg/m3
same,mass density,"240.09 K, 13002 kPa, x2 = 0.5001",93.298 ± 0.049 kg/m3
same,mass density,"240.09 K, 14003 kPa, x2 = 0.5001",99.881 ± 0.05 kg/m3
same,mass density,"240.09 K, 15003 kPa, x2 = 0.5001",106.346 ± 0.05 kg/m3
same,mass density,"240.09 K, 16007 kPa, x2 = 0.5001",112.717 ± 0.05 kg/m3
same,mass density,"250.02 K, 998 kPa, x2 = 0.95",12.909 ± 0.07 kg/m3
same,mass density,"250.02 K, 1998 kPa, x2 = 0.95",25.981 ± 0.071 kg/m3
same,mass density,"250.02 K, 2999 kPa, x2 = 0.95",39.211 ± 0.072 kg/m3
same,mass density,"250.02 K, 3999 kPa, x2 = 0.95",52.525 ± 0.073 kg/m3
same,mass density,"250.02 K, 4999 kPa, x2 = 0.95",65.908 ± 0.074 kg/m3
same,mass density,"250.02 K, 5999 kPa, x2 = 0.95",79.318 ± 0.075 kg/m3
same,mass density,"250.02 K, 6999 kPa, x2 = 0.95",92.739 ± 0.076 kg/m3
same,mass density,"250.02 K, 8001 kPa, x2 = 0.95",106.147 ± 0.077 kg/m3
same,mass density,"250.02 K, 9002 kPa, x2 = 0.95",119.485 ± 0.077 kg/m3
same,mass density,"250.02 K, 9998 kPa, x2 = 0.95",132.641 ± 0.078 kg/m3
same,mass density,"250.02 K, 11003 kPa, x2 = 0.95",145.769 ± 0.078 kg/m3
same,mass density,"250.02 K, 12002 kPa, x2 = 0.95",158.648 ± 0.078 kg/m3
same,mass density,"250.02 K, 13002 kPa, x2 = 0.95",171.33 ± 0.079 kg/m3
same,mass density,"250.02 K, 14006 kPa, x2 = 0.95",183.836 ± 0.079 kg/m3
same,mass density,"250.02 K, 15009 kPa, x2 = 0.95",196.059 ± 0.079 kg/m3
same,mass density,"250.02 K, 16008 kPa, x2 = 0.95",207.967 ± 0.079 kg/m3
same,mass density,"250.02 K, 17012 kPa, x2 = 0.95",219.644 ± 0.079 kg/m3
same,mass density,"250.02 K, 18015 kPa, x2 = 0.95",231.002 ± 0.08 kg/m3
same,mass density,"250.02 K, 19020 kPa, x2 = 0.95",242.075 ± 0.08 kg/m3
same,mass density,"250.02 K, 19863 kPa, x2 = 0.95",251.12 ± 0.083 kg/m3
same,mass density,"250.03 K, 999 kPa, x2 = 0.5001",7.213 ± 0.043 kg/m3
same,mass density,"250.03 K, 1999 kPa, x2 = 0.5001",14.386 ± 0.044 kg/m3
same,mass density,"250.03 K, 2988 kPa, x2 = 0.5001",21.436 ± 0.044 kg/m3
same,mass density,"250.03 K, 3998 kPa, x2 = 0.5001",28.596 ± 0.044 kg/m3
same,mass density,"250.03 K, 4998 kPa, x2 = 0.5001",35.626 ± 0.045 kg/m3
same,mass density,"250.04 K, 998 kPa, x2 = 0.9",12.26 ± 0.067 kg/m3
same,mass density,"250.04 K, 1998 kPa, x2 = 0.9",24.659 ± 0.068 kg/m3
same,mass density,"250.04 K, 2987 kPa, x2 = 0.9",37.024 ± 0.069 kg/m3
same,mass density,"250.04 K, 3998 kPa, x2 = 0.9",49.722 ± 0.07 kg/m3
same,mass density,"250.04 K, 4998 kPa, x2 = 0.9",62.325 ± 0.07 kg/m3
same,mass density,"250.04 K, 5999 kPa, x2 = 0.5001",42.6 ± 0.045 kg/m3
same,mass density,"250.04 K, 5999 kPa, x2 = 0.9",74.953 ± 0.071 kg/m3
same,mass density,"250.04 K, 6999 kPa, x2 = 0.5001",49.504 ± 0.046 kg/m3
same,mass density,"250.04 K, 6999 kPa, x2 = 0.9",87.557 ± 0.072 kg/m3
same,mass density,"250.04 K, 7999 kPa, x2 = 0.5001",56.336 ± 0.046 kg/m3
same,mass density,"250.04 K, 8000 kPa, x2 = 0.9",100.114 ± 0.073 kg/m3
same,mass density,"250.04 K, 8999 kPa, x2 = 0.5001",63.085 ± 0.046 kg/m3
same,mass density,"250.04 K, 9001 kPa, x2 = 0.9",112.6 ± 0.073 kg/m3
same,mass density,"250.04 K, 9995 kPa, x2 = 0.9",124.895 ± 0.074 kg/m3
same,mass density,"250.04 K, 9999 kPa, x2 = 0.5001",69.753 ± 0.046 kg/m3
